Results taken from patent US8623429B2, “Stabilized anthocyanin compositions” (Omnica GmbH, priority 2007, dated 2014).
Each block holds one compound with its values, some of them ahead of it.

Assays:
Type in all cases: physicochemical
[1] = Example 8: oxidation of GSH to GSSG in buffer pH 7.0 at 37° C. with/without bilberry extract (HPLC); conditions: buffer pH 7.0, 37° C.
Procedure: Sample a) 60 mg GSH (0.192 mmol) were placed into a 100 ml flask, dissolved and filled up to volume with sodium phosphate buffer (5% [w/w], pH=7.0). The sample was kept with stirring at 37° C. Samples were taken immediately after dissolution and after 1, 2, 3 and 4 hours of incubation. The samples were analyzed by HPLC for GSH and GSSG (representing the oxidized form of GSH).
Sample b) 60 mg reduced L-glutathione (0.192 mmol) were added to a 100 ml flask with 60 ml sodium phosphate buffer (5% [w/w], pH=7.0) and stirred until dissolution was complete. 60 mg bilberry extract [37% anthocyanosides] (0.048 mmol expressed as cyanidin-3-O-glucoside) were added, the flask was filled to volume with sodium phosphate buffer (5% [w/w], pH=7.0) and kept at 37° C. (water bath) with stirring. Samples were taken immediately after dissolution and after 1, 2, 3 and 4 hours of incubation. The samples were analyzed by HPLC for GSH and GSSG (representing the oxidized form of GSH).
(§1) Samples were prepared as outlined below in HPLC Analytical Method. Test stability samples were immediately acidified (to block degradation) and injected undiluted following the detailed description provided below.

[2] = Example 6: stability of free anthocyanidins delphinidin and malvidin at 37° C., pH 7.0, with/without GSH (HPLC); conditions: pH 7.0, 37° C.
Procedure: (§2) Sample a) 5 mg delphinine chloride (0.015 mmol) was transferred into a 100 ml flask, dissolved in 1 ml methanol and filled to volume with sodium phosphate buffer (5% [w/w], pH=7.0). The sample was kept with stirring at 37° C. Samples were taken immediately after dissolution, after 15 minutes, 1, 2, and 3 hours of incubation. The samples were acidified with formic acid to pH=1.0 and analyzed by HPLC.
as §2, with “b)” for “a)”, “malvidin” for “delphinine”, “(0.014” for “(0.015”, “dissolution and at” for “dissolution, after 15 minutes,”
(§3) Sample c) 5 mg delphinidine chloride (0.015 mmol) and 10 mg GSH (0.032 mmol) were transferred into a 100 ml flask, dissolved in 1 ml methanol and filled to volume with sodium phosphate buffer (5% [w/w], pH=7.0). The sample was kept with stirring at 37° C. Samples were taken at 15 minutes after dissolution and after 1, 2 and 3 hours of incubation. The samples were acidified with formic acid to pH=1.0 and analyzed by HPLC.
as §3, with “d)” for “c)”, “malvidin” for “delphinidine”, “(0.014” for “(0.015”, “taken” for “taken at”
as §1

[3] = Example 1: stability of bilberry extract anthocyanosides, 4 hours at 37° C., pH 7.0, with/without DHLA or GSH (HPLC)
Procedure: (0.048 mmol anthocyanosides expressed as cyanidin-3-O-glucoside) were added to a 100 ml flask and filled to volume with sodium phosphate buffer (5% [w/w], pH=7.0), and stirred until dissolution was complete. A 1 ml sample was taken immediately and acidified with formic acid to pH=1.0 and analyzed by HPLC for the content of anthocyanosides (Fresh Sample). The remaining solution was kept for 4 hours at 37° C. (water bath) with stirring. Thereafter another sample (Blank sample), representing unprotected degradation, was taken and acidified.
(0.048 mmol expressed as cyanidin-3-O-glucoside) were then added and the flask was filled to volume with sodium phosphate buffer (5% [w/w], pH=7.0) and kept for 4 hours at 37° C. (water bath) with stirring.
Quantitation: External standardization based on linear regression analysis. The response factors of all anthocyanosides separated is quantitified against cyanidin-3-O-glucoside.
Test solutions from incubation experiments (with/without cells and with/without stabilizing agents) were used for analysis after stabilization of anthocyanosides with formic acid. Samples were cleared by filtration prior to injection on to HPLC-system.

[4] = Example 2: degradation over time of selected bilberry anthocyanosides at 37° C., pH 7.0, with/without GSH (HPLC); conditions: pH 7.0, 37° C.; for %-residual anthocyanosides (% left): 4.30 hours
Procedure: Sample a) 60 mg bilberry extract [37% anthocyanosides] (0.048 mmol expressed as cyanidin-3-O-glucoside) were added to a 100 ml, filled to volume with sodium phosphate buffer (5% [w/w], pH=7.0) and stirred until dissolution was complete. A 1 ml sample was immediately taken and acidified with formic acid to pH=1.0 and analyzed by HPLC for the content of anthocyanosides. The remaining solution was kept at 37° C. (water bath) with stirring and additional 1 ml samples (Blank Samples), representing unprotected degradation, were sampled every 15 minutes. The samples were analyzed for selected anthocyanosides by HPLC.
Sample b) 20 mg reduced L-glutathione (0.065 mmol) were added to a 100 ml flask with 60 ml sodium phosphate buffer (5% [w/w], pH=7.0) and stirred until dissolution was complete. 60 mg bilberry extract [37% anthocyanosides] (0.048 mmol expressed as cyanidin-3-O-glucoside) were added and the flask was filled to volume with sodium phosphate buffer (5% [w/w], pH=7.0) and kept at 37° C. (water bath) with stirring. Every 15 minutes, 1 ml samples were taken and analyzed for selected anthocyanosides by HPLC.
as §1
HPLC Analytical Method (Materials, Instruments and Methods): […]

[5] = Example 9: stability of bilberry extract anthocyanosides, 4 hours at 37° C., pH 7.0, with/without L-cysteine
Procedure: Sample a) 60 mg bilberry extract [37% anthocyanosides] (0.048 mmol anthocyanosides expressed as cyanidin-3-O-glucoside) were added to a 100 ml flask with 60 ml sodium phosphate buffer (5% [w/w], pH=7.0), and stirred until dissolution was complete. A 1 ml sample was taken immediately and acidified with formic acid to pH=1.0 and analyzed by HPLC for the content of anthocyanosides (Fresh Sample). The remaining solution was kept for 4 hours at 37° C. (water bath) with stirring. Thereafter another sample (Blank sample), representing unprotected degradation, was taken and acidified.
Sample b) 20 mg L-cysteine […] were added to a 100 ml flask with 60 ml sodium phosphate buffer (5% [w/w], pH=7.0) and stirred until dissolution was complete. 60 mg bilberry extract [37% anthocyanosides] (0.048 mmol expressed as cyanidin-3-O-glucoside) were then added to the flask and stir to fully dissolve, then kept for 4 hours at 37° C. (water bath) with stirring.
After 4 hours, samples were taken and acidified immediately with formic acid to pH=1.0 and analyzed by HPLC for the content of anthocyanosides. Degradation is expressed as decrease in peak area of individual peaks (calculated as % left after 4 hours).
Samples were prepared as outlined above in the HPLC Analytical Method. Test stability samples were immediately acidified (to block degradation) and injected undiluted following the detailed description provided below.

[6] = 20 mg reduced L-glutathione, pH 7.0, 37° C., 4 hours
[7] = 30 mg dihydrolipoic acid, pH 7.0, 37° C., 4 hours
[8] = unprotected, pH 7.0, 37° C., 4 hours

- Peak Area ([1]; GSH + bilberry Sample, 0 hours): 4760
- peak area Ratio % ([1]; GSH + bilberry Sample, 0 hours): 92.3%
- Peak Area ([1]; GSH + bilberry Sample, 1 hour): 4071
- peak area Ratio % ([1]; GSH + bilberry Sample, 1 hour): 79.0%
- Peak Area ([1]; GSH + bilberry Sample, 2 hours): 3378
- peak area Ratio % ([1]; GSH + bilberry Sample, 2 hours): 65.5%
- Peak Area ([1]; GSH + bilberry Sample, 3 hours): 3045
- peak area Ratio % ([1]; GSH + bilberry Sample, 3 hours): 59.1%
- Peak Area ([1]; GSH + bilberry Sample, 4 hours): 2461
- peak area Ratio % ([1]; GSH + bilberry Sample, 4 hours): 47.7%
- Peak Area ([1]; GSH Sample, 0 hours): 4760
- peak area Ratio % ([1]; GSH Sample, 0 hours): 92.3%
- Peak Area ([1]; GSH Sample, 1 hour): 4744
- peak area Ratio % ([1]; GSH Sample, 1 hour): 92.0%
- Peak Area ([1]; GSH Sample, 2 hours): 4220
- peak area Ratio % ([1]; GSH Sample, 2 hours): 81.9%
- Peak Area ([1]; GSH Sample, 3 hours): 4053
- peak area Ratio % ([1]; GSH Sample, 3 hours): 78.6%
- Peak Area ([1]; GSH Sample, 4 hours): 3777
- peak area Ratio % ([1]; GSH Sample, 4 hours): 73.3%
Structure (SMILES): N[C@@H](CCC(=O)N[C@@H](CS)C(=O)NCC(=O)O)C(=O)O [GSH, reduced L-glutathione]

Structure (SMILES): Oc1cc(O)c2cc(O)c(-c3cc(O)c(O)c(O)c3)[o+]c2c1 [Delphinidin]
- Peak Area ([2]; Blank, 0 hours): 48.6
- Peak Area ([2]; Blank, 0.25 hours): BLD
- Peak Area ([2]; Blank, 1 hour): BLD
- Peak Area ([2]; Blank, 2 hours): BLD
- Peak Area ([2]; Blank, 3 hours): BLD
- Peak Area ([2]; GSH 10 mg, 0.25 hours): BLD
- Peak Area ([2]; GSH 10 mg, 1 hour): BLD
- Peak Area ([2]; GSH 10 mg, 2 hours): BLD
- Peak Area ([2]; GSH 10 mg, 3 hours): BLD

Structure (SMILES): COc1cc(-c2[o+]c3cc(O)cc(O)c3cc2O)cc(OC)c1O.[Cl-] [Malvidin]
- Peak Area ([2]; Blank, 0 hours): 1228
- Peak Area ([2]; Blank, 1 hour): 661.6
- Peak Area ([2]; Blank, 2 hours): 175.3
- Peak Area ([2]; Blank, 3 hours): 56.4
- Peak Area ([2]; GSH 10 mg, 1 hour): 530.1
- Peak Area ([2]; GSH 10 mg, 2 hours): 263.5
- Peak Area ([2]; GSH 10 mg, 3 hours): 5.6

- % left, GSH (4 hours) [3, 6]: 50.6%
- Peak Area, GSH (4 hours) [3, 6]: 331.3
- % left, DHLA (4 hours) [3, 7]: 60.5%
- Peak Area, DHLA (4 hours) [3, 7]: 395.8
- Peak Area, Fresh (0 hours) ([3]; bilberry extract 60 mg/100 ml sodium phosphate buffer pH 7.0, fresh sample): 654.4
- % left, Blank (4 hours) [3, 8]: 7.8%
- Peak Area, Blank (4 hours) [3, 8]: 50.9
- Peak Area ([4]; Blank Sample, 1:15 h): 354.36
- Peak Area ([4]; Blank Sample, 4:15 h): 226.99
- Peak Area ([4]; Blank Sample, 4:30 h): 135.48
- Peak Area ([4]; Blank sample, 0:00 h): 699.51
- Peak Area ([4]; Blank sample, 0:15 h): 547.09
- Peak Area ([4]; Blank sample, 0:30 h): 603.54
- Peak Area ([4]; Blank sample, 0:45 h): 451.09
- Peak Area ([4]; Blank sample, 1:00 h): 467.23
- Peak Area ([4]; Blank sample, 1:45 h): 401.11
- Peak Area ([4]; Blank sample, 2:00 h): 356.25
- Peak Area ([4]; Blank sample, 2:15 h): 320.33
- Peak Area ([4]; Blank sample, 2:30 h): 262.70
- Peak Area ([4]; Blank sample, 2:45 h): 264.07
- Peak Area ([4]; Blank sample, 3:00 h): 288.65
- Peak Area ([4]; Blank sample, 3:15 h): 289.95
- Peak Area ([4]; Blank sample, 3:30 h): 237.41
- Peak Area ([4]; Blank sample, 4:00 h): 243.90
- %-residual anthocyanosides (% left) ([4]; Blank): 19%
- Peak Area ([4]; GSH Protected Sample (20 mg), 0:30 h): 674.83
- Peak Area ([4]; GSH Protected Sample (20 mg), 1:30 h): 618.45
- Peak Area ([4]; GSH Protected Sample (20 mg), 2:30 h): 528.71
- Peak Area ([4]; GSH Protected Sample (20 mg), 3:30 h): 553.82
- Peak Area ([4]; GSH Protected Sample (20 mg), 4:30 h): 531.62
- Peak Area ([4]; GSH Protected Sample (20 mg), 4:45 h): 478.52
- Peak Area ([4]; GSH protected sample (20 mg), 0:00 h): 731.12
- Peak Area ([4]; GSH protected sample (20 mg), 0:15 h): 739.50
- Peak Area ([4]; GSH protected sample (20 mg), 0:45 h): 598.57
- Peak Area ([4]; GSH protected sample (20 mg), 1:00 h): 652.53
- Peak Area ([4]; GSH protected sample (20 mg), 1:15 h): 648.70
- Peak Area ([4]; GSH protected sample (20 mg), 1:45 h): 609.47
- Peak Area ([4]; GSH protected sample (20 mg), 2:00 h): 583.66
- Peak Area ([4]; GSH protected sample (20 mg), 2:15 h): 592.13
- Peak Area ([4]; GSH protected sample (20 mg), 2:45 h): 560.24
- Peak Area ([4]; GSH protected sample (20 mg), 3:00 h): 562.10
- Peak Area ([4]; GSH protected sample (20 mg), 3:15 h): 562.39
- Peak Area ([4]; GSH protected sample (20 mg), 3:45 h): 495.67
- Peak Area ([4]; GSH protected sample (20 mg), 4:00 h): 563.95
- Peak Area ([4]; GSH protected sample (20 mg), 4:15 h): 540.10
- %-residual anthocyanosides (% left) ([4]; GSH-protected): 65%
- %-residual anthocyanosides (% left) ([4]; GSH-protected, listed as delphinidin-3-O-Galactose): 65%
- Peak Area, Fresh solution ([5]; bilberry extract 60 mg in buffer pH 7.0, fresh sample): 654.4
- % left, L-cysteine 20 mg ([5]; pH 7.0, 37° C., 4 hours): 50.6%
- Peak Area, L-cysteine 20 mg ([5]; pH 7.0, 37° C., 4 hours): 331.3
- % left, Blank [5, 8]: 7.8%
- Peak Area, Blank [5, 8]: 50.9
Structure (SMILES): OC[C@H]1O[C@@H](Oc2cc3c(O)cc(O)cc3[o+]c2-c2cc(O)c(O)c(O)c2)[C@H](O)[C@@H](O)[C@H]1O [Dp-3O-Gal, Delphinidin 3-o-galactoside]
